Measured values reported in US20240158446A1, “CYCLIC COMPOUND HAVING SELECTIVE INHIBITORY ACTION ON KRAS OVER HRAS AND NRAS” (CHUGAI SEIYAKU KABUSHIKI KAISHA, priority 2021, published 2024).
Like-named read-outs stand apart in the source and are kept apart here. *1 amine or outer side, *2 acyl side, *3 side chain or, on linkers, in order; H or OH if unused. Where a SMILES comes first, the peptide text is derived from it. Bridges are numbered along the chain shown (N, C = ends). [ ]: non-standard residue; d: D form. The star is where a group is joined. hPhe(3,5-F2-4-CF3) = N[C@@H](CCc1cc(F)c(C(F)(F)F)c(F)c1)C(=O)O; X22 = O=C([C@H](Cc1ccc(C(F)(F)F)cc1)N(CC1CCCC1)[*:1])[*:2]; hPhe(3-Cl-4-CF3) = N[C@@H](CCc1ccc(C(F)(F)F)c(Cl)c1)C(=O)O; NPrPhe(4-CF3) = CCCN[C@@H](Cc1ccc(C(F)(F)F)cc1)C(=O)O; NMeGly(cPent) = CN[C@H](C(=O)O)C1CCCC1; NMeGly(cBu) = CN[C@H](C(=O)O)C1CCC1; NMeD = CN[C@@H](CC(=O)O)C(=O)O; Ac4c(3-oxa) = NC1(C(=O)O)COC1; NMeL = CN[C@@H](CC(C)C)C(=O)O; Morpholide = C1CN(*)CCO1; Ac5c = NC1(C(=O)O)CCCC1; Sar = CNCC(=O)O

Experiments:
[1] = molecular target: GDP-bound HRAS wild-type protein (Homo sapiens, UniProt P01112); assay: Binding to HRAS by surface plasmon resonance (SPR), Single Cycle Kinetics; settings: for HRAS/KRAS (ratio of KD value for HRAS to KD value for KRAS) / HRAS/KRAS (ratio of KD value with respect to HRAS to KD value with respect to KRAS): SPR, GDP-bound HRAS wild-type protein vs GDP-bound KRAS wild-type protein; for HRAS/KRAS (ratio of KD value with respect to GDP-bound HRAS wild-type protein to KD value with respect to KRAS): SPR KD ratio HRAS/KRAS, class symbols
[2] = molecular target: GDP-bound KRAS wild-type protein (Homo sapiens, UniProt P01116); assay: Binding to KRAS by surface plasmon resonance (SPR), Single Cycle Kinetics; settings: GDP-bound KRAS wild-type protein, read-out: KRAS KD
[3] = molecular target: GDP-bound NRAS wild-type protein (Homo sapiens, UniProt P01111); assay: Binding to NRAS by surface plasmon resonance (SPR), Single Cycle Kinetics; settings: for NRAS/KRAS (ratio of KD value for NRAS to KD value for KRAS) / NRAS/KRAS (ratio of KD value with respect to NRAS to KD value with respect to KRAS): SPR, GDP-bound NRAS wild-type protein vs GDP-bound KRAS wild-type protein; for NRAS/KRAS (ratio of KD value with respect to GDP-bound NRAS wild-type protein to KD value with respect to KRAS): SPR KD ratio NRAS/KRAS, class symbols
[4] = SPR Single Cycle Kinetics, 1:1 binding model

GDP-bound HRAS wild-type protein, sequence (P01112 whole entry): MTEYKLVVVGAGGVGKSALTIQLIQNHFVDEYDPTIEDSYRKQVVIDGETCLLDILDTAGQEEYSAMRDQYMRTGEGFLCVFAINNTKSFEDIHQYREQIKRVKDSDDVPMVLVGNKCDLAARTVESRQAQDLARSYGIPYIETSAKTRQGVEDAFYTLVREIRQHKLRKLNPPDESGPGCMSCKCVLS
GDP-bound NRAS wild-type protein, sequence (P01111 whole entry): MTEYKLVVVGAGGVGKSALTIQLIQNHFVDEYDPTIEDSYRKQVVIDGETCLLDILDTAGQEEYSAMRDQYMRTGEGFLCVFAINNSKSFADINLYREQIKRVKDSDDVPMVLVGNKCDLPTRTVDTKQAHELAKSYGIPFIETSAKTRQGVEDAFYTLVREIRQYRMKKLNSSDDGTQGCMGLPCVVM
GDP-bound KRAS wild-type protein, sequence (P01116 whole entry): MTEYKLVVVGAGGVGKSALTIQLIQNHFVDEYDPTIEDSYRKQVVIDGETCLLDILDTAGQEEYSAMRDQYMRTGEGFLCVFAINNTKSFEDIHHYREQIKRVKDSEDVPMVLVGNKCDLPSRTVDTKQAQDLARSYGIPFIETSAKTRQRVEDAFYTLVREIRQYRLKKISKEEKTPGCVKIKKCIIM

| Kd ([2]; SPR, Single Cycle Kinetics) [nM] | Kd [2, 4] [nM] | Structure (SMILES) | HRAS/KRAS (ratio of KD value for HRAS to KD value for KRAS) [1] | NRAS/KRAS (ratio of KD value for NRAS to KD value for KRAS) [3] | HRAS/KRAS (ratio of KD value with respect to GDP-bound HRAS wild-type protein to KD value with respect to KRAS) [1] | NRAS/KRAS (ratio of KD value with respect to GDP-bound NRAS wild-type protein to KD value with respect to KRAS) [3] | HRAS/KRAS (ratio of KD value with respect to HRAS to KD value with respect to KRAS) [1] | NRAS/KRAS (ratio of KD value with respect to NRAS to KD value with respect to KRAS) [3] |
| --- | --- | --- | --- | --- | --- | --- | --- | --- |
| 27 | – | CCO[C@@H]1C[C@H]2C(=O)NC3(CCC3)C(=O)N(C)[C@@H](C3CCCC3)C(=O)N(CC)[C@H](C(=O)N3CCOCC3)CC(=O)N(C)[C@@H](CCc3ccccc3)C(=O)N[C@@H]([C@@H](C)CC)C(=O)N(C)CC(=O)N(C)[C@H]3CCCCCN(C3=O)[C@@H](Cc3ccc(C(F)(F)F)cc3)C(=O)N(C)CC(=O)N[C@@H](CCc3cc(F)c(C(F)(F)F)c(F)c3)C(=O)N2C1 [PP0953] | A (a compound having 10 or more and less than 20 is denoted as A) | A (a compound having 10 or more and less than 20 is denoted as A) | – | – | – | – |
| – | 0.17 | CC[C@H](C)[C@@H]1NC(=O)[C@@H]2CCC/C=C/c3ccc(cc3)C[C@@H](C(=O)N(C)CC(=O)N[C@@H](CCc3ccc(Cl)c(Cl)c3)C(=O)N3C[C@H](OC(C)C)C[C@H]3C(=O)NC3(CC(C)(C)C3)C(=O)N(C)[C@@H](C3CCCC3)C(=O)N(C)[C@H](C(=O)N(C)CC)CC(=O)N2C)N2CC/C=C\C[C@@H](C2=O)N(C)C(=O)CN(C)C1=O [PP2595] | – | – | B (a compound having 3 or more and less than 10 is denoted as B) | A (a compound having 10 or more and less than 20 is denoted as A) | – | – |
| 0.19 | – | CCC[C@H]1C(=O)N[C@@H](C2CCCC2)C(=O)N(C)CC(=O)N(C)[C@H]2C/C=C\CCN(C2=O)[C@@H](Cc2ccc(C)cc2)C(=O)N(C)CC(=O)N[C@@H](CCc2ccc(C(F)(F)F)c(OC)c2)C(=O)N2C[C@H](OCC)C[C@H]2C(=O)NC2(CC(C)(C)C2)C(=O)N(C)[C@@H](C2CCCC2)C(=O)N(C)[C@H](C(=O)N(C)C)CC(=O)N1C [PP2992] | A (a compound having 10 or more and less than 20 is denoted as A) | AA (a compound having 20 or more is denoted as AA) | – | – | – | – |
| 0.23 | – | CCO[C@@H]1C[C@H]2C(=O)NC3(CC(C)(C)C3)C(=O)N(C)[C@@H](C(CC)CC)C(=O)N(C)[C@H](C(=O)N(C)C)CC(=O)N(C)[C@@H](COC)C(=O)N[C@@H]([C@@H](C)CC)C(=O)N(C)CC(=O)N(C)[C@H]3C/C=C\CCN(C3=O)[C@@H](Cc3ccc(C(F)(F)F)cc3)C(=O)N(C)CC(=O)N[C@@H](CCc3ccc(C(F)(F)F)c(Cl)c3)C(=O)N2C1 [PP2126] | B (a compound having 3 or more and less than 10 is denoted as B) | A (a compound having 10 or more and less than 20 is denoted as A) | – | – | – | – |
| – | 0.25 | CCCN1C(=O)CN(C)C(=O)CN(C)C(=O)[C@H]([C@@H](C)CC)NC(=O)[C@H](C2CCC2)N(C)C(=O)C[C@@H](C(=O)N2CCOCC2)N(C)C(=O)[C@H](C2CCCC2)N(C)C(=O)C2(CCCC2)NC(=O)[C@@H]2CCCN2C(=O)[C@H](CCc2ccc(C(F)(F)F)c(Cl)c2)NC(=O)CN(C)C(=O)[C@@H]1Cc1ccc(C(F)(F)F)cc1 [PP0188] ([NMeGly(cBu)]I[Sar][Sar][NPrPhe(4-CF3)][Sar][hPhe(3-Cl-4-CF3)]P[Ac5c][NMeGly(cPent)][NMeD]-Morpholide; lactam N-11) | C (A compound having a KD ratio of 0.1 or more and less than 3 is denoted as C) | B (a compound having 3 or more and less than 10 is denoted as B) | – | – | – | – |
| – | 2.4 | CCC[C@H]1C(=O)N[C@@H]([C@@H](C)CC)C(=O)N(C2CC2)CC(=O)N(C)[C@H]2C/C=C\CCN(C2=O)[C@@H](Cc2ccc(C(F)(F)F)cc2)C(=O)N(C)CC(=O)N[C@@H](CCc2ccc(Cl)c(Cl)c2)C(=O)N2C[C@H](OCC)C[C@H]2C(=O)NC2(CC(C)(C)C2)C(=O)N(C)[C@@H](CC2CC2)C(=O)N(C)[C@H](C(=O)N(C)C)CC(=O)N1C [PP2817] | – | – | A (a compound having 10 or more and less than 20 is denoted as A) | A (a compound having 10 or more and less than 20 is denoted as A) | – | – |
| – | 3.5 | CC[C@H](C)[C@@H]1NC(=O)[C@H](CC(C)C)N(C)C(=O)C[C@@H](C(=O)N2CCOCC2)N(C)C(=O)[C@H](C2CCCC2)N(C)C(=O)C2(CCCC2)NC(=O)[C@@H]2CCCN2C(=O)[C@H](CCc2ccc(C(F)(F)F)c(Cl)c2)NC(=O)CN(C)C(=O)[C@H](Cc2ccc(C(F)(F)F)cc2)N(CC2CCCC2)C(=O)CN(C)C(=O)CN(C)C1=O [PP0124] ([NMeL]I[Sar][Sar][X22][Sar][hPhe(3-Cl-4-CF3)]P[Ac5c][NMeGly(cPent)][NMeD]-Morpholide; lactam N-11) | C (A compound having a KD ratio of 0.1 or more and less than 3 is denoted as C) | C (A compound having a KD ratio of 0.1 or more and less than 3 is denoted as C) | – | – | – | – |
| – | 0.05 | CCCN1C(=O)[C@@H]2CCN2C(=O)[C@H](C)N(C)C(=O)[C@H]([C@@H](C)CC)NC(=O)[C@H](CC(C)C)N(C)C(=O)C[C@@H](C(=O)N2CCOCC2)N(C)C(=O)[C@H](C2CCCC2)N(C)C(=O)C2(CCCC2)NC(=O)[C@@H]2C[C@@H](O)CN2C(=O)[C@H](CCc2ccc(C(F)(F)F)c(Cl)c2)NC(=O)CN(C)C(=O)[C@@H]1Cc1ccc(C(F)(F)F)cc1 [PP0239] | B (a compound having 3 or more and less than 10 is denoted as B) | C (A compound having a KD ratio of 0.1 or more and less than 3 is denoted as C) | – | – | – | – |
| 0.12 | – | CCO[C@@H]1C[C@H]2C(=O)NC3(CCC3)C(=O)N(C)[C@@H](C3CCCC3)C(=O)N(C)[C@H](C(=O)N(C)C)CC(=O)N(C)[C@@H](C(C)C)C(=O)N[C@@H]([C@@H](C)CC)C(=O)N(C)CC(=O)N(C)[C@H]3C/C=C\CCN(C3=O)[C@@H](Cc3ccc(C(F)(F)F)cc3)C(=O)N(C)CC(=O)N[C@@H](CCc3cc(F)c(C(F)(F)F)c(F)c3)C(=O)N2C1 [PP1109, (2S,8S,12R,14S,20S,23S,27S,30S,36S,38Z)-20-cyclopentyl-8-[2-[3,5-difluoro-4-(trifluoromethyl)phenyl]ethyl]-12-ethoxy-27-isopropyl-N,N,4,19,22,26,32,35-octamethyl-30-[(1S)-1-methylpropyl]-3,6,9,15,18,21,25,28,31,34,42-undecaoxo-2-[[4-(trifluoromethyl)phenyl]methyl]spiro[1,4,7,10,16,19,22,26,29,32,35-undecazatricyclo[34.5.1.0^10,14]dotetracont-38-ene-17,1′-cyclobutane]-23-carboxamide] | B (a compound having 3 or more and less than 10 is denoted as B) | A (a compound having 10 or more and less than 20 is denoted as A) | – | – | – | – |
| – | 0.31 | CCCN1C(=O)CN(C)C(=O)CN(C)C(=O)[C@H]([C@@H](C)CC)NC(=O)[C@H](CC(C)C)N(C)C(=O)C[C@@H](C(=O)N2CCOCC2)N(C)C(=O)[C@H](C2CCCC2)N(C)C(=O)C2(COC2)NC(=O)[C@@H]2CCCN2C(=O)[C@H](CCc2cc(F)c(C(F)(F)F)c(F)c2)NC(=O)CN(C)C(=O)[C@@H]1Cc1ccc(C(F)(F)F)cc1 [PP0765] ([NMeL]I[Sar][Sar][NPrPhe(4-CF3)][Sar][hPhe(3,5-F2-4-CF3)]P[Ac4c(3-oxa)][NMeGly(cPent)][NMeD]-Morpholide; lactam N-11) | – | – | – | – | C (A compound having a KD ratio of 0.1 or more and less than 3 is denoted as C) | B (a compound having 3 or more and less than 10 is denoted as B) |
| – | 0.47 | CCO[C@@H]1C[C@H]2C(=O)NC3(CC(C)(C)C3)C(=O)N(C)[C@@H](C3CCCC3)C(=O)N(C)[C@H](C(=O)N(C)C)CC(=O)N(C)[C@@H](C)C(=O)N[C@@H]([C@@H](C)CC)C(=O)N(C)CC(=O)N(C)[C@H]3CCCCCN(C3=O)[C@@H](Cc3ccc(C(F)(F)F)cc3)C(=O)N(C)CC(=O)N[C@@H](CCc3cc(F)c(C(F)(F)F)c(F)c3)C(=O)N2C1 [PP0723] | – | – | – | – | B (a compound having 3 or more and less than 10 is denoted as B) | B (a compound having 3 or more and less than 10 is denoted as B) |

| Structure (SMILES) | Kd ([2]; SPR, Single Cycle Kinetics) [nM] | Kd [2, 4] [nM] | HRAS/KRAS (ratio of KD value for HRAS to KD value for KRAS) [1] | NRAS/KRAS (ratio of KD value for NRAS to KD value for KRAS) [3] | HRAS/KRAS (ratio of KD value with respect to GDP-bound HRAS wild-type protein to KD value with respect to KRAS) [1] | NRAS/KRAS (ratio of KD value with respect to GDP-bound NRAS wild-type protein to KD value with respect to KRAS) [3] | HRAS/KRAS (ratio of KD value with respect to HRAS to KD value with respect to KRAS) [1] | NRAS/KRAS (ratio of KD value with respect to NRAS to KD value with respect to KRAS) [3] |
| --- | --- | --- | --- | --- | --- | --- | --- | --- |
| CCCO[C@@H]1C[C@H]2C(=O)NC3(CC(C)(C)C3)C(=O)N(C)[C@@H](C3CCCC3)C(=O)N(C)[C@H](C(=O)N3CCCCC3)CC(=O)N(C)[C@H]3CCCc4ccc(cc4)C[C@@H](C(=O)N(C)CC(=O)N[C@@H](CCc4ccc(C(F)(F)F)c(OC)c4)C(=O)N2C1)N1CC/C=C\C[C@@H](C1=O)N(C)C(=O)CN(C)C(=O)[C@H]([C@@H](C)CC)NC3=O [PP3064] | 0.37 | – | B (a compound having 3 or more and less than 10 is denoted as B) | B (a compound having 3 or more and less than 10 is denoted as B) | – | – | – | – |
